# Assay results taken from US20230066946A1, “1,5-DIPHENYLPYRAZOLYL-3-OXYALKYL ACIDS AND 1-PHENYL-5-THIENYLPYRAZOLYL-3-OXYALKYL ACIDS AND THE USE THEREOF FOR CONTROL OF UNWANTED PLANT GROWTH” (Bayer Aktiengesellschaft, priority 2019, published 2023).
# What was measured:
# [1] = system: VIOTR; experiment: Post-emergence herbicidal action against VIOTR; assay type: in vivo, Viola tricolor; settings: 320 g/ha, visual rating about 3 weeks after treatment
# Procedure, shortened: (§1)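 Visual scoring, where 100% = dead and 0% = like untreated plants, was done about 3 weeks after treatment. Dose was 1280 or 320 g/ha, delivered as aqueous WP/EC suspension or emulsion with 0.5% additive at 600 L/ha. Pot-grown weeds in sandy loam were treated post-emergence at one leaf, 2-3 weeks post-sowing.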
# [2] = system: SETVI; experiment: Pre-emergence herbicidal action against SETVI; assay type: in vivo, Setaria viridis; settings: 1280 g/ha, scored visually after about 3 weeks vs untreated controls
# Procedure, shortened: (§2)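 Scoring is visual, in percent relative to untreated pots, roughly 3 weeks after soil-surface application. Rates were 1280 or 320 g/ha, delivered as WP or EC preparations with 0.5% additive in 600 L/ha water onto freshly sown, covered sandy loam.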
# [3] = system: POLCO; experiment: Pre-emergence herbicidal action against POLCO; assay type: in vivo, Polygonum convolvulus; settings: 320 g/ha, scored visually after about 3 weeks vs untreated controls
# Procedure, shortened: as §2
# [4] = system: POLCO; experiment: Post-emergence herbicidal action against POLCO; assay type: in vivo, Polygonum convolvulus; settings: 320 g/ha, visual rating about 3 weeks after treatment
# Procedure, shortened: as §1
# [5] = system: STEME; experiment: Post-emergence herbicidal action against STEME; assay type: in vivo, Stellaria media; settings: visual rating about 3 weeks after treatment
# Procedure, shortened: as §1
# [6] = system: ECHCG; experiment: Post-emergence herbicidal action against ECHCG; assay type: in vivo, Echinochloa crus-galli; settings: 1280 g/ha, post-emergence at one-leaf stage, rated visually after about 3 weeks vs untreated controls
# Procedure, shortened: as §1
# [7] = system: AMARE; experiment: Post-emergence herbicidal action against AMARE; assay type: in vivo, Amaranthus retroflexus; settings: visual rating about 3 weeks after treatment
# Procedure, shortened: as §1
# [8] = system: SETVI; experiment: Post-emergence herbicidal action against SETVI; assay type: in vivo, Setaria viridis; settings: 1280 g/ha, post-emergence at one-leaf stage, rated visually after about 3 weeks vs untreated controls
# Procedure, shortened: as §1
# [9] = system: VERPE; experiment: Post-emergence herbicidal action against VERPE; assay type: in vivo, Veronica persica; settings: 320 g/ha, visual rating about 3 weeks after treatment
# Procedure, shortened: as §1
# [10] = system: PHBPU; experiment: Post-emergence herbicidal action against PHBPU; assay type: in vivo, Pharbitis purpurea; settings: 320 g/ha, visual rating about 3 weeks after treatment
# Procedure, shortened: as §1
# [11] = system: harmful plants; experiment: Post-emergence herbicidal action, summary of Tables 5.1-5.16; assay type: in vivo; settings: result in words
# Method: Seeds of mono- and dicotyledonous weed plants are placed in plastic pots in sandy loam soil (twin sowing with one species each of mono- or dicotyledonous weed plants per pot), covered with soil and cultivated in a greenhouse under controlled growth conditions. 2 to 3 weeks after sowing, the test plants are treated at the one-leaf stage. The compounds of the invention, formulated in the form of wettable powders (WP) or as emulsion concentrates (EC), are applied to the green parts of the plants as aqueous suspension or emulsion with addition of 0.5% additive at a water application rate equivalent to 600 litres per hectare. After the test plants have been kept in the greenhouse under optimum growth conditions for about 3 weeks, the activity of the preparations is rated visually in comparison to untreated controls. For example, 100% activity=the plants have died, 0% activity=like control plants. Tables 5.1-5.16 below show the effects of selected compounds of the general formula (I) according to Tables 1 to 3 on various harmful plants at an application rate corresponding to 1280 or 320 g/ha, which have been obtained by the aforementioned experimental method. As the results from Tables 5.1-5.16 show, compounds of the invention have good herbicidal post-emergence efficacy against a broad spectrum of weed grasses and weeds. […] For example, compounds Nos. I-002, I-006, I-022, I-056 and I-072 applied by the post-emergence method have very good herbicidal action (80% to 100% herbicidal action) against harmful plants such as Alopecurus myosuroides, Amaranthus retroflexus, Matricaria inodora, Setaria viridis, Pharbitis purpurea and Stellaria media at an application rate of 1.28 kg of active substance or less per hectare.
# [12] = system: ECHCG; experiment: Pre-emergence herbicidal action against ECHCG; assay type: in vivo, Echinochloa crus-galli; settings: scored visually after about 3 weeks vs untreated controls, 100% = plants have died, 0% = like control plants
# Procedure, shortened: as §2
# [13] = system: VERPE; experiment: Pre-emergence herbicidal action against VERPE; assay type: in vivo, Veronica persica; settings: 320 g/ha, scored visually after about 3 weeks vs untreated controls
# Procedure, shortened: as §2
# [14] = system: MATIN; experiment: Post-emergence herbicidal action against MATIN; assay type: in vivo, Matricaria inodora; settings: visual rating about 3 weeks after treatment
# Procedure, shortened: as §1
# [15] = system: AMARE; experiment: Pre-emergence herbicidal action against AMARE; assay type: in vivo, Amaranthus retroflexus; settings: scored visually after about 3 weeks vs untreated controls; for Pre-emergence action at 320 g/ha against AMARE in %: 100% = plants have died, 0% = like control plants; for Pre-emergence action against AMARE in %: 1280 g/ha
# Procedure, shortened: as §2
# [16] = system: STEME; experiment: Pre-emergence herbicidal action against STEME; assay type: in vivo, Stellaria media; settings: scored visually after about 3 weeks vs untreated controls
# Procedure, shortened: as §2
# [17] = system: ALOMY; experiment: Pre-emergence herbicidal action against ALOMY; assay type: in vivo, Alopecurus myosuroides; settings: scored visually after about 3 weeks vs untreated controls, 100% = plants have died, 0% = like control plants
# Excerpt: (§3) Seeds of mono- and dicotyledonous weed plants are placed in plastic pots in sandy loam soil (doubly sown with one species each of mono- or dicotyledonous weed plants per pot) and covered with soil. The compounds of the invention, formulated in the form of wettable powders (WP) or as emulsion concentrates (EC), are then applied onto the surface of the covering soil as aqueous suspension or emulsion with addition of 0.5% additive at a water application rate equivalent to 600 litres per hectare. After the treatment, the pots are placed in a greenhouse and kept under good growth conditions for the trial plants. After about 3 weeks, the effect of the preparations is scored visually in comparison with untreated controls as percentages. For example, 100% activity=the plants have died, 0% activity=like control plants. [table] Tables 4.1-4.15 below show the effects of selected compounds of the general formula (I) according to Tables 1 to 3 on various harmful plants at an application rate corresponding to 1280 or 320 g/ha, which have been obtained by the aforementioned experimental method.
# [18] = system: CYPES; experiment: Pre-emergence herbicidal action against CYPES; assay type: in vivo, Cyperus esculentus; settings: scored visually after about 3 weeks vs untreated controls, 100% = plants have died, 0% = like control plants
# Excerpt: as §3
# [19] = system: ALOMY; experiment: Post-emergence herbicidal action against ALOMY; assay type: in vivo, Alopecurus myosuroides; settings: 1280 g/ha, post-emergence at one-leaf stage, rated visually after about 3 weeks vs untreated controls
# Method: [table] Seeds of mono- and dicotyledonous weed plants are placed in plastic pots in sandy loam soil (twin sowing with one species each of mono- or dicotyledonous weed plants per pot), covered with soil and cultivated in a greenhouse under controlled growth conditions. 2 to 3 weeks after sowing, the test plants are treated at the one-leaf stage. The compounds of the invention, formulated in the form of wettable powders (WP) or as emulsion concentrates (EC), are applied to the green parts of the plants as aqueous suspension or emulsion with addition of 0.5% additive at a water application rate equivalent to 600 litres per hectare. After the test plants have been kept in the greenhouse under optimum growth conditions for about 3 weeks, the activity of the preparations is rated visually in comparison to untreated controls. For example, 100% activity=the plants have died, 0% activity=like control plants. Tables 5.1-5.16 below show the effects of selected compounds of the general formula (I) according to Tables 1 to 3 on various harmful plants at an application rate corresponding to 1280 or 320 g/ha, which have been obtained by the aforementioned experimental method.
# [20] = system: harmful plants; experiment: Pre-emergence herbicidal action, summary of Tables 4.1-4.15; assay type: in vivo; settings: result in words
# Excerpt: as §3, with “plants.” for “plants. [table] Tables 4.1-4.15 below show the effects of selected compounds of the general formula (I) according to Tables 1 to 3 on various harmful plants at an application rate corresponding to 1280 or 320 g/ha, which have been obtained by the aforementioned experimental method.”
# Tables 4.1-4.15 below show the effects of selected compounds of the general formula (I) according to Tables 1 to 3 on various harmful plants at an application rate corresponding to 1280 or 320 g/ha, which have been obtained by the aforementioned experimental method.
# For example, compounds no. I-008, I-056, I-057, I-061, I-067, I-070 and I-072 applied by the pre-emergence method have very good action (80% to 100% herbicidal action) against harmful plants such as Alopecurus myosuroides, Amaranthus retroflexus, Matricaria inodora, Polygonum convolvulus, Setaria viridis and Stellaria media at an application rate of 1.28 kg of active substance or less per hectare.
# [21] = system: MATIN; experiment: Pre-emergence herbicidal action against MATIN; assay type: in vivo, Matricaria inodora; settings: 1280 g/ha, scored visually after about 3 weeks vs untreated controls
# Excerpt: as §3
# [22] = system: VIOTR; experiment: Pre-emergence herbicidal action against VIOTR; assay type: in vivo, Viola tricolor; settings: 1280 g/ha, scored visually after about 3 weeks vs untreated controls
# Excerpt: as §3
Compound,Pre-emergence action against SETVI in % [2],Pre-emergence action against POLCO in % [3],Post-emergence action against STEME in % ([5]; 320 g/ha),Post-emergence action against STEME in % ([5]; 1280 g/ha),Post-emergence action against ECHCG in % [6],Post-emergence action against AMARE in % ([7]; 320 g/ha),Post-emergence action against AMARE in % ([7]; 1280 g/ha),Post-emergence action against SETVI in % [8],Post-emergence action against VERPE in % [9],Post-emergence action against PHBPU in % [10],herbicidal efficacy against harmful plants when applied post-emergence [11],Pre-emergence action against VERPE in % [13],Post-emergence action against MATIN in % ([14]; 1280 g/ha),Pre-emergence action at 320 g/ha against AMARE in % [15],Pre-emergence action against AMARE in % [15],Pre-emergence action against STEME in % ([16]; 1280 g/ha),Pre-emergence action at 1280 g/ha against ALOMY in % [17],Post-emergence action against ALOMY in % [19],herbicidal efficacy against harmful plants in the case of pre-emergence treatment [20],Pre-emergence action against MATIN in % [21],further results
COC(=O)COc1nn(-c2ccccc2F)c(-c2ccccc2)c1Br [I-054],90%,100%,90%,100%,90%,90%,100%,100%,80%,100%,very good herbicidal efficacy,100%,100%,100%,100%,100%,–,–,–,–,Post-emergence action against VIOTR in % [1]: 90%; Post-emergence action against POLCO in % [4]: 80%; Pre-emergence action at 1280 g/ha against ECHCG in % [12]: 90%; Post-emergence action against MATIN in % ([14]; 320 g/ha): 90%; Pre-emergence action against STEME in % ([16]; 320 g/ha): 100%
COC(=O)COc1nn(-c2ccc(Cl)cc2)c(-c2ccc(F)cc2)c1Cl [I-007],–,–,–,–,–,–,80%,–,90%,–,–,–,–,80%,100%,90%,80%,–,–,–,–
COC(=O)COc1nn(-c2ccc(F)cc2)c(-c2ccc(F)cc2)c1Cl [I-006],–,–,–,80%,–,–,100%,90%,–,80%,very good herbicidal efficacy,–,80%,80%,100%,100%,–,80%,–,–,Pre-emergence action at 1280 g/ha against CYPES in % [18]: 100%
COC(=O)COc1nn(-c2ccccc2)c(-c2ccc(F)cc2)c1Cl [I-008],90%,80%,90%,90%,–,80%,80%,–,90%,–,–,90%,90%,100%,100%,100%,100%,–,good herbicidal efficacy,90%,Post-emergence action against POLCO in % [4]: 80%; Post-emergence action against MATIN in % ([14]; 320 g/ha): 90%
COC(=O)COc1nn(-c2ccccc2)c(-c2cccc(F)c2)c1C#N [I-021],–,–,80%,80%,80%,80%,80%,–,–,80%,very good herbicidal efficacy,90%,80%,100%,100%,90%,–,80%,good herbicidal efficacy,90%,Pre-emergence action at 1280 g/ha against CYPES in % [18]: 100%; Pre-emergence action against VIOTR in % [22]: 90%
COC(=O)COc1nn(-c2ccccc2)c(-c2cccc(F)c2)c1Cl [I-002],–,–,80%,90%,80%,80%,90%,80%,80%,80%,very good herbicidal efficacy,100%,80%,100%,100%,100%,80%,80%,good herbicidal efficacy,100%,Pre-emergence action against STEME in % ([16]; 320 g/ha): 80%
